US5157023A, “Antipyretic and anti-inflammatory lys pro val compositions and method of use” (priority 1991, dated 1992)
Peptide text beside a SMILES is read from it.

What was measured:
[1] = test system: leukocytic pyrogen-induced fever; assay: in vivo rabbit pyresis assay (leukocytic pyrogen-induced fever); set-up: species or system New Zealand white rabbits; conditions: for decrease in fever, percent reduction of the area under the control fever curve: intraventricular (central), 30 min after pyrogen, over 1.5 hours; for fever reduction: 1.5 hour period after injection of leukocytic pyrogen
Experimental: Leukocytic pyrogen is a molecule capable of producing transient fever in mammals which is produced by incubating rabbit leukocytes with Salmonella typhosa endotoxin. More specifically, to produce leukocytic pyrogen, donor rabbits were first sacrificed by decapitation. Blood was collected in a heparinized pryrogen-free beaker. Heparinized 50-ml glass centrifuge tubes were filled 3/4 full with whole blood, saline was added to fill each tube, and the solution was gently mixed. The tubes were then centrifuged at low speed for 20 min. The buffy coat was drawn off and placed in pyrogen-free flasks. Lactate Ringer's solution equal in volume to one-half that of the red cell layer, was added along with Salmonella typhosa endotoxin (Difco, No. 0901) also in Ringer's solution (1 ug/ml), to the buffy coat. The mixture was incubated at 38~C in a shaking water bath for 4 hours. The solution was centrifuged, filtered (Nalgene, 0.20 microns), and the leukocytic pyrogen-containing filtrate was stored at 4~C. Samples of leukocytic pyrogen were heated to 70~C for 2 hours and injected intravenously to test for endotoxin contamination.
Injections were 50 ul in volume and were followed by a 20 ul saline flush. Intravenous injections were made via the marginal ear vein. Intravenous leukocytic pyrogen injections were 0.07 ml of a stock solution made up of a mixture of leukocytic pyrogen derived from 4 donors. When injected, leukocytic pyrogen stock solution was diluted with nonpyrgenic isotonic saline. Injections were made with commercial nonpyrogenic syringes. Glassware was washed with chromic acid, rinsed with deionized water and heated to 200~C for a minimum of 2 hours to insure that it was pyrogen free.
Adult New Zealand white rabbits were used for the development of an antipyretic assay. The rabbits were housed individually in a 21-23~Cenvironment with a 12 hour light/dark cycle; food and water were available ad libitum. […]. Rabbits were placed in a Kopf rabbit stereotaxic instrument and a stainless steel cannula (No. 201, David Kopf Instruments)was inserted into a lateral ventricle at a point 1.0 mm anterior to the bregma and 2.7 mm lateral to the midline. The cannula was lowered until cerebrospinal fluid appeared inside the well of the cannula. Stainless steel screws and dental acrylic were used to anchor the cannula to the caluarium. Benzathine penicillin G (Bicillin, Wyeth Laboratories) was given post-operatively (150,000 units intramuscularly).
(§1) Experimental rabbits that were to be used in the antipyresis study were restrained in conventional holders and a thermistor probe (Yellow Springs International, No. 701) was inserted about 100 mm into the rectum and taped to the tail. In certain experiments, another thermistor probe (Yellow Springs International, No. 709) was attached to the dorsal surface of the ear. Temperature recordings were made every 10 minutes via a MINC 11 online computer connected to a digital temperature recorder (Datalogger, United Systems Corp.) At least 1 hour was allowed after the probes were inserted before injections were made, and all experiments were separated by at least 48 hours. Experiments were run in an environmental chamber at 23~C.
The average thermal response, the mean change in temperature (~C) over the duration of the response measured in hours, was calculated for each response and the paired t-test was used for statistical analysis of the data. The time period over which the experimental anti-pyretic temperature response was determined was generally set by the duration of the control response for the individual animal. The control response begins with the first deviation from baseline temperature and continues until the temperature returns to baseline or to the point nearest the baseline within 5 hours. The mean change in temperature for each 10 minute intervals during this time period are summed and divided by the total number of 10 minute periods. […]

normal body temperature = assay: body temperature of afebrile rabbits; assay type: in vivo
Experimental: as §1
Injections of the tripeptide were given 30 minutes after the pyrogen, into the intraventricular cannula. […] Decreases in fever, calculated as percent reduction of the area under the control fever curve over the apparent duration of action of the peptide (1.5 hours), were 24%, 31%, and 48% for the 0.5, 1.0, and 2.0 milligram doses, respectively. Similarly, intravenous administration of 2, 20 and 200 milligrams of the tripeptide reduced fever 34, 27 and 67% , respectively, during the 1.5 hour period after injection of the leukocytic pyrogen. Control saline injections, centrally administered, caused no significant reduction in body temperature.

[2] = test system: carrageenan-induced swelling of rat paws; assay: carrageenan/rat paw edema assay; assay type: in vivo, male Sprague-Dawley rats; conditions: for overall reduction of carrageenan-induced swelling relative to hydrocortisone: approximately equal weights, intraperitoneal
Experimental: A second in vivo bioassay for anti-inflammatory activity was conducted in which the action of the tripeptide was compared to that of hydrocortisone. In this assay, the two agents were given at similar doses and tested for their independent ability to inhibit carrageenan-induced swelling of rats paws. This assay, the rat paw edema test, was conducted generally as it is typically performed in the art, for example, as described by Winter et al. (1962), Proc. Soc. Exp. Biol. Med., 111:544 or in U.S. Pat. No. 4,150,137.
Briefly, the assay was performed as follows. Each of twenty-four male Sprague-Dawley rats was assigned to one of four groups: tripeptide treatment and controls (matched according to body weight and initial paw volume), hydrocortisone treatment and matched controls. The volume of the right rear paw of the test and control animals was determined using standard procedures and a mercury displacement volumetric technique. An intraperitoneal injection of the tripeptide (Ac-Lys-Pro-Val-NH2, 100 mg/kg, N=6), of hydrocortisone (100 mg/kg, N=6), or saline (matched volume, N=12) was given to each rat. One hour later 0.5 ml of 1% lambda carrageenan in saline solution was injected into the right rear paw of the animals and the paw volume was again recorder (baseline measure). […] Thereafter paw volume was measured each hour for out hours. For comparison of the effects of the two treatments, paw volume of experimental animals measured at hourly intervals was expressed as a percentage of the volume change of their respective matched controls.

[3] = test system: histamine-mediated increase in capillary permeability; assay: skin-blueing test (Sparrow/Wilhelm assay), histamine-induced blue weals; assay type: in vivo, New Zealand white rabbits; conditions: for relative intensity of histamine-induced blue weals, experimental (E) vs control (C): scored 30 minutes after histamine
From the text: This model relies on the principal that localized, subcutaneous injections of histamine will result in a localized increase in capillary permeability. When the test animal has been pretreated with blue dye intravenously, the localized histamine injections will elicit blue-colored "weals" around the injection site. Thus, by preadministration of an effective anti-inflammatory agent, the blue color of the histamine-induced weals will be much less pronounced, with the amount of color reduction being dependent on the relative amount and/or potency of the anti-inflammatory agent used.
Non-moulting New Zealand white rabbits were used for the sparrow/Wilhelm assay. The skin of the rabbits back was closely clipped 1-2 days previous to the experiment, but not dipilated, and the rabbits were kept warm until tested. Various amounts of the protected tripeptide (diacetyl-L-lys-l-Pro-L-Val-NH2) were injected intravenously into an ear vein approximately 15 minutes prior to intravenous injection of blue dye. Control rabbits received sham injections. Fifteen minutes following injection of the agent or sham, the rabbits received approximately 30 mg/kg of Pontamine blue dye as a 2.5% solution in 0.45% saline, into an exposed vein.
Immediately following dye injections, histamine was injected intradermally in a 0.10 ml volume (1.25 mg histamine 0.1 ml volume) at several sites on each side of the spine. In all, one vertical row of six injections were made on each side of the spine. The relative intensity of the resultant blue weals were scored by an independent observer 30 minutes after histamine injection.

Compound: CC(C)[C@H](NC(=O)[C@@H]1CCCN1C(=O)[C@@H](N)CCCCN)C(=O)O [L-Lys-L-Pro-L-val] (H-Lys-Pro-Val-OH)
- decrease in fever, percent reduction of the area under the control fever curve ([1]; 0.5 milligram dose): 24%
- decrease in fever, percent reduction of the area under the control fever curve ([1]; 1.0 milligram dose): 31%
- decrease in fever, percent reduction of the area under the control fever curve ([1]; 2.0 milligram dose): 48%
- duration of (antipyretic) action ([1]; central administration): 1.5 h
- fever reduction ([1]; intravenous 2 milligrams): 34%
- fever reduction ([1]; intravenous 20 milligrams): 27%
- fever reduction ([1]; intravenous 200 milligrams): 67%
- reduction in body temperature of afebrile rabbits (normal body temperature; injections of 200 milligrams): no reduction in body temperature

Compound: [Cl][Cu][Cl] [copper ions, cupric chloride]
- effect of copper ions alone on normal temperature (normal body temperature; doses used to enhance the protected peptide): no effect on normal temperature

Compound: C[C@]12CCC(=O)C=C1CC[C@@H]1[C@@H]2[C@@H](O)C[C@@]2(C)[C@H]1CC[C@]2(O)C(=O)CO [hydrocortisone, reference compound]
- inhibition of paw swelling in the first hour ([2]; 100 mg/kg intraperitoneal, first hour after carrageenan, p<0.05 Mann-Whitney vs tripeptide): markedly inhibited swelling

Compound: diacetyl-L-Lysyl-L-Prolyl-L-Valyl-NH2 [protected tripeptide]
- reduction of fever induced by intravenous leukocytic pyrogen ([1]; 0.5 mg, central administration): more than 50%
- antipyretic potency relative to the unprotected tripeptide ([1]; central administration): at least four
- duration of (antipyretic) action ([1]; central administration): at least four
- activity relative to the unprotected species on a weight basis ([1]; rabbit pyresis assay, summary statement): approximately twice
- relative intensity of histamine-induced blue weals, experimental (E) vs control (C) ([3]; 0.625 ug/kg body weight intravenously): No difference
- relative intensity of histamine-induced blue weals, experimental (E) vs control (C) ([3]; 1.25 ug/kg body weight intravenously): E lighter than C
- relative intensity of histamine-induced blue weals, experimental (E) vs control (C) ([3]; 5 ug/kg body weight intravenously): E lighter than C
- relative intensity of histamine-induced blue weals, experimental (E) vs control (C) ([3]; 10 ug/kg body weight intravenously): E lighter than C
- lowest intravenous dosage reducing histamine-mediated increase in capillary permeability ([3]; intravenous): 1.25 ug/kg body weight
- lowest dosage eliciting a demonstrable reduction in histamine-mediated vascular permeability to vital dyes ([3]; rabbit, in vivo): about 1 microgram/kilogram
- inhibition of paw edema compared with hydrocortisone ([2]; 100 mg/kg intraperitoneal each, 1 h before carrageenan, hours after the first hour, p>0.20): no significant difference
- overall reduction of carrageenan-induced swelling relative to hydrocortisone ([2]; listed as diacetyl-Lys-Pro-Val-NH2): roughly equivalent
- overall reduction of carrageenan-induced swelling relative to hydrocortisone ([2]; listed as protected Lys-Pro-Val tripeptide): commensurate with hydrocortisone
